Test results from the NIST ThermoML archive (doi:10.1021/je050231r).
± gives the expanded uncertainty stated by the source.

Conditions: Liquid; for mass density: 293.2 K, 101.33 kPa

BrCCBr [1,2-dibromoethane]
mass density: 2179.24 ± 2.4 kg/m3 | vapor or sublimation pressure (404.6 K): 101.81 ± 0.62 kPa | vapor or sublimation pressure (405.4 K): 102.09 ± 0.52 kPa | vapor or sublimation pressure (405.5 K): 102.11 ± 0.52 kPa | vapor or sublimation pressure (405.8 K): 101.86 ± 0.98 kPa

c1ccccc1 [benzene]
mass density: 876.53 ± 0.19 kg/m3 | vapor or sublimation pressure (354.4 K): 101.77 ± 5.1 kPa

Brc1ccccc1 [bromobenzene]
mass density: 1495.23 ± 1.2 kg/m3 | vapor or sublimation pressure (429.4 K): 101.76 ± 2.6 kPa

Fc1ccccc1 [fluorobenzene]
mass density: 1022.27 ± 0.27 kg/m3 | vapor or sublimation pressure (358.4 K): 101.94 ± 5.1 kPa

Cc1ccccc1 [toluene]
mass density: 866.81 ± 0.28 kg/m3 | vapor or sublimation pressure (384.9 K): 102.09 ± 5.1 kPa
